In patent publication US9096624B2 (OSI Pharmaceuticals, LLC, priority 2009, dated 2015):

Tests used:
FAK [1] = target: T1, FAK (Homo sapiens, UniProt Q05397); experiment: Cell-based capture ELISA for inhibition of FAK autophosphorylation [pY397] in MiaPaCa2 cells
Method: Cell-Based Assays for Inhibition of FAK Autophosphorylation: MiaPaCa2 and U87MG
ELISA kit from Invitrogen (KHO0441).
Reagents Provided in Biosource FAK [pY397]
The cells were then suspended in cell assay medium.

FAK [2] = target: T1, FAK; experiment: biochemical
[3] = MIA-PaCa2 cells, + 50% mouse plasma (Table 3), read-out: Mean FAK Cell Mechanistic IC50 + 50% mP MIA-PaCa2
[4] = MIA-PaCa2 cells, + 50% mouse plasma (Table 2), read-out: Mean FAK Cell Mechanistic IC50 + 50% mP MIA-PaCa2
[5] = MIA-PaCa2 cells on fibronectin, 2 h, no plasma, read-out: Mean FAK Cell Mechanistic IC50 MIA-PaCa2
[6] = MIA-PaCa2 cells, + 50% human plasma, read-out: Mean FAK Cell Mechanistic IC50 + 50% hP MIA-PaCa2

T1 sequence (Q05397 whole entry): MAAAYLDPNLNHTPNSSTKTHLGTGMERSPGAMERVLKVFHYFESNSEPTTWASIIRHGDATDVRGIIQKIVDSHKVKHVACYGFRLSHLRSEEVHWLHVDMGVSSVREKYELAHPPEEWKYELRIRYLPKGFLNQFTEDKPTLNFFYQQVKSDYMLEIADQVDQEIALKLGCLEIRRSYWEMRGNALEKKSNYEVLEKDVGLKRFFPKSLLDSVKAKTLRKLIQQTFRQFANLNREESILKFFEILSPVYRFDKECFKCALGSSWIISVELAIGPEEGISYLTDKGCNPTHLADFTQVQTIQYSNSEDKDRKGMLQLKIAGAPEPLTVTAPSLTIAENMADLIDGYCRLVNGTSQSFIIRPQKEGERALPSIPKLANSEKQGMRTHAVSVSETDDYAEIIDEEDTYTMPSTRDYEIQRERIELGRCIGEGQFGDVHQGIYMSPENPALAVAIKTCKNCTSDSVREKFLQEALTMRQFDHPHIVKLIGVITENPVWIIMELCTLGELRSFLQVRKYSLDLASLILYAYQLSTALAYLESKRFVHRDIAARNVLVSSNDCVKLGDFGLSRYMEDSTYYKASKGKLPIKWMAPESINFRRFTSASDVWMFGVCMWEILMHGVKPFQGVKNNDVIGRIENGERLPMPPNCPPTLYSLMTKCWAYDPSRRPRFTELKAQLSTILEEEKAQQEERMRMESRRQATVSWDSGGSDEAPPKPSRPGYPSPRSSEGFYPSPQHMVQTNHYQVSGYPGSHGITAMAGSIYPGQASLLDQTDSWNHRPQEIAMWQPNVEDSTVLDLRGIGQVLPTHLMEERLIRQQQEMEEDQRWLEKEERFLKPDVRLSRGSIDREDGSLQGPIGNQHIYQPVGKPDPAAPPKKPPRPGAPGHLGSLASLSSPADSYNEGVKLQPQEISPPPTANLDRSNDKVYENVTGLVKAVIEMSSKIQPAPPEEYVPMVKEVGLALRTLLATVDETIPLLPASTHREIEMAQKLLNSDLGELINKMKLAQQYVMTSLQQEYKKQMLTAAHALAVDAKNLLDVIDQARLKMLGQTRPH

SMILES	IC50 (FAK [1]; [3]) [nM]	IC50 (FAK [2]) [nM]	IC50 (FAK [1]; [4]) [nM]	IC50 (FAK [1]; [5]) [nM]	IC50 (FAK [1]; [6]) [nM]
CCOP(=O)(Cc1ccc(Nc2ncc(C(F)(F)F)c(Nc3ccc(C(=O)O)c4c3C(=O)N(C)C4)n2)c(OC)c1)OCC [Example 129, 7-{[2-({4-[(Diethoxyphosphoryl)methyl]-2-methoxyphenyl}amino)-5-(trifluoromethyl)pyrimidin-4-yl]amino}-2-methyl-1-oxo-2,3-dihydro-1H-isoindole-4-carboxylic acid]	1000 to 10000	< 1000	–	–	–
CCOP(=O)(O)Cc1ccc(Nc2ncc(C(F)(F)F)c(Nc3ccc(-c4cnn(CCCO)c4)c4c3C(=O)N(C)C4)n2)cc1 [Example 182, Sodium ethyl (4-{[4-({7-[1-(3-hydroxypropyl)-1H-pyrazol-4-yl]-2-methyl-3-oxo-2,3-dihydro-1H-isoindol-4-yl}amino)-5-(trifluoromethyl)pyrimidin-2-yl]amino}benzyl)phosphonate]	1000 to 10000	< 1000	–	–	–
CCCOP(=O)(OCCC)c1ccc(Nc2ncc(C(F)(F)F)c(NCc3cccnc3N(C)S(C)(=O)=O)n2)cc1 [Example 37, dipropyl [4-({4-[({2-[methyl(methylsulfonyl)amino]pyridin-3-yl}methyl)amino]-5-(trifluoromethyl)pyrimidin-2-yl}amino)phenyl]phosphonate]	–	< 1000	1000 to 10000	–	–
CCCP(=O)(CCC)c1ccc(Nc2ncc(C(F)(F)F)c(Nc3ccc([C@H]4CC[C@H](O)CC4)c4c3C(=O)N(C)C4)n2)cc1 [Example 198, 7-{[2-{[4-(Dipropylphosphoryl)phenyl]amino}-5-(trifluoromethyl)pyrimidin-4-yl]amino}-4-(trans-4-hydroxycyclohexyl)-2-methyl-2,3-dihydro-1H-isoindol-1-one]	< 1000	< 1000	–	–	–
CCOP(=O)(Cc1ccc(Nc2ncc(C(F)(F)F)c(NCc3cccnc3N(C)S(C)(=O)=O)n2)cc1)c1ccccc1 (centres unmarked) [Example 50, Ethyl [4-({4-[({2-[methyl(methylsulfonyl)amino]pyridin-3-yl}methyl)amino]-5-(trifluoromethyl)pyrimidin-2-yl}amino)benzyl]phenylphosphinate]	–	< 1000	1000 to 10000	–	–
CCOP(=O)(Cc1ccc(Nc2ncc(C(F)(F)F)c(Nc3ccc(C(=O)N4CCCC4)c4c3C(=O)N(C)C4)n2)cc1)OCC [Example 116, Diethyl (4-{[4-{[2-methyl-3-oxo-7-(pyrrolidin-1-ylcarbonyl)-2,3-dihydro-1H-isoindol-4-yl]amino}-5-(trifluoromethyl)pyrimidin-2-yl]amino}benzyl)phosphonate]	1000 to 10000	< 1000	–	–	–
CCOP(=O)(Cc1ccc(Nc2ncc(C(F)(F)F)c(Nc3ccc([C@H]4CC[C@@H](OCC)CC4)c4c3C(=O)N(C)C4)n2)c(OC)c1)OCC [Example 167, Diethyl (4-{[4-{[7-(cis-4-ethoxycyclohexyl)-2-methyl-3-oxo-2,3-dihydro-1H-isoindol-4-yl]amino}-5-(trifluoromethyl)pyrimidin-2-yl]amino}-3-methoxybenzyl) phosphonate]	< 1000	< 1000	–	–	–
CCOP(=O)(Cc1ccc(Nc2ncc(C(F)(F)F)c(Nc3ccc(N4CC(O)C4)c4c3C(=O)N(C)C4)n2)c(OC)c1)OCC [Example 229, Diethyl (4-{[4-{[7-(3-hydroxyazetidin-1-yl)-2-methyl-3-oxo-2,3-dihydro-1H-isoindol-4-yl]amino}-5-(trifluoromethyl)pyrimidin-2-yl]amino}-3-methoxybenzyl)phosphonate]	< 1000	< 1000	–	–	–
CCOP(=O)(Cc1ccc(Nc2ncc(C(F)(F)F)c(Nc3ccc(N4CCOCC4)c4c3C(=O)N(C)C4)n2)cc1)OCC [Example 208, Diethyl (4-{[4-{[2-methyl-7-(morpholin-4-yl)-3-oxo-2,3-dihydro-1H-isoindol-4-yl]amino}-5-(trifluoromethyl)pyrimidin-2-yl]amino}benzyl)phosphonate]	< 1000	< 1000	–	–	–
CCP(=O)(CC)Cc1cccc(Nc2ncc(C(F)(F)F)c(Nc3ccccc3C(=O)NC)n2)c1 [Example 23, 2-{[2-({3-[(Diethylphosphoryl)methyl]phenyl}amino)-5-(trifluoromethyl)pyrimidin-4-yl]amino}-N-methylbenzamide]	–	< 1000	< 1000	< 1000	< 1000
CCOP(=O)(Cc1ccc(Nc2ncc(C(F)(F)F)c(Nc3ccccc3C(N)=O)n2)c(OC)c1)OCC [Example 190, Diethyl [4-({4-[(2-carbamoylphenyl)amino]-5-(trifluoromethyl)pyrimidin-2-yl}amino)-3-methoxybenzyl]phosphonate]	< 1000	< 1000	–	–	–
CCOC(=O)[C@H]1CC[C@@H](c2ccc(Nc3nc(Nc4ccc(CP(=O)(OCC)OCC)cc4OC)ncc3C(F)(F)F)c3c2CN(C)C3=O)CC1 [Example 87, Ethyl cis-4-(7-{[2-({4-[(diethoxyphosphoryl)methyl]-2-methoxyphenyl}amino)-5-(trifluoromethyl)pyrimidin-4-yl]amino}-2-methyl-1-oxo-2,3-dihydro-1H-isoindol-4-yl)cyclohexanecarboxylate]	–	< 1000	< 1000	–	–
CCOP(=O)(O)Cc1cccc(Nc2ncc(C(F)(F)F)c(NCc3cccnc3N(C)S(C)(=O)=O)n2)c1 [Example 44, Ethyl hydrogen [3-({4[({2-[methyl(methylsulfonyl)amino]pyridin-3-yl}methyl)amino]-5-(trifluoromethyl)pyrimidin-2-yl}amino)benzyl]phosphonate]	–	< 1000	–	> 10000	> 10000
CC(C)OP(=O)(OC(C)C)c1ccc(Nc2ncc(C(F)(F)F)c(NCc3cccnc3N(C)S(C)(=O)=O)n2)cc1 [Example 38, dipropan-2-yl [4-({4-[({2-[methyl(methylsulfonyl)amino]pyridin-3-yl}methyl)amino]-5-(trifluoromethyl)pyrimidin-2-yl}amino)phenyl]phosphonate]	–	< 1000	1000 to 10000	–	–
CCOc1cc(CP(=O)(OCC)OCC)ccc1Nc1ncc(C(F)(F)F)c(Nc2ccc([C@H]3CC[C@@H](C(=O)O)CC3)c3c2C(=O)N(C)C3)n1 [Example 257, cis-4-(7-{[2-({4-[(Diethoxyphosphoryl)methyl]-2-ethoxyphenyl}amino)-5-(trifluoromethyl)pyrimidin-4-yl]amino}-2-methyl-1-oxo-2,3-dihydro-1H-isoindol-4-yl)cyclohexanecarboxylic acid]	< 1000	< 1000	–	–	–
CCOP(=O)(Cc1ccc(Nc2ncc(C(F)(F)F)c(Nc3ccc([C@H]4CC[C@@](C)(O)CC4)c4c3C(=O)N(C)C4)n2)c(OC)c1)OCC [Example 197, Diethyl (4-{[4-{[7-(cis-4-hydroxy-4-methylcyclohexyl)-2-methyl-3-oxo-2,3-dihydro-1H-isoindol-4-yl]amino}-5-(trifluoromethyl)pyrimidin-2-yl]amino}-3-methoxybenzyl)phosphonate]	< 1000	< 1000	–	–	–
CCOP(=O)(Cc1ccc(Nc2ncc(C(F)(F)F)c(Nc3ccccc3C(=O)NC)n2)cc1)OCC [Example 20, diethyl (4-{[4-{[2-(methylcarbamoyl)phenyl]amino}-5-(trifluoromethyl)pyrimidin-2-yl]amino}benzyl)phosphonate]	–	< 1000	–	< 1000	< 1000
CN(c1ncccc1CNc1nc(Nc2ccc(CP3(=O)OCCCO3)cc2)ncc1C(F)(F)F)S(C)(=O)=O [Example 31, N-methyl-N-[3-({[2-({4-[(2-oxido-1,3,2-dioxaphosphinan-2-yl)methyl]phenyl}amino)-5-(trifluoromethyl)pyrimidin-4-yl]amino}methyl)pyridin-2-yl]methanesulfonamide]	–	< 1000	< 1000	< 1000	< 1000
CCOP(=O)(Cc1cccc(Nc2ncc(C(F)(F)F)c(NCc3cccnc3N(C)S(C)(=O)=O)n2)c1)c1ccccc1 (centres unmarked) [Example 51, Ethyl [3-({4-[({2-[methyl(methylsulfonyl)amino]pyridin-3-yl}methyl)amino]-5-(trifluoromethyl)pyrimidin-2-yl}amino)benzyl]phenylphosphinate]	–	< 1000	> 10000	–	–
CCCP(=O)(CCC)c1cccc(Nc2ncc(C(F)(F)F)c(Nc3ccc(-c4cnn(CCO)c4)c4c3C(=O)N(C)C4)n2)c1 [Example 168, 7-{[2-{[3-(Dipropylphosphoryl)phenyl]amino}-5-(trifluoromethyl)pyrimidin-4-yl]amino}-4-[1-(3-hydroxyethyl)-1H-pyrazol-4-yl]-2-methyl-2,3-dihydro-1H-isoindol-1-one]	< 1000	< 1000	–	–	–
CCOP(=O)(Cc1ccc(Nc2ncc(C(F)(F)F)c(Nc3ccc(N4CCN(C(C)=O)CC4)c4c3C(=O)N(C)C4)n2)cc1)OCC [Example 199, Diethyl (4-{[4-{[7-(4-acetylpiperazin-1-yl)-2-methyl-3-oxo-2,3-dihydro-1H-isoindol-4-yl]amino}-5-(trifluoromethyl)pyrimidin-2-yl]amino}benzyl)phosphonate]	< 1000	< 1000	–	–	–
CCOP(C)(=O)Cc1ccc(Nc2ncc(C(F)(F)F)c(NCc3cccnc3N(C)S(C)(=O)=O)n2)cc1 (centres unmarked) [Example 45, Ethyl methyl[4-({4-[({2-[methyl(methylsulfonyl)amino]pyridin-3-yl}methyl)amino]-5-(trifluoromethyl)pyrimidin-2-yl}amino)benzyl]phosphinate]	–	< 1000	–	< 1000	< 1000
CCOP(=O)(Cc1ccc(Nc2ncc(Cl)c(Nc3ccccc3C(=O)NC)n2)cc1)OCC [Example 48, Diethyl {4-[(5-chloro-4-{[2-(methylcarbamoyl)phenyl]amino}pyrimidin-2-yl)amino]benzyl}phosphonate]	–	< 1000	1000 to 10000	–	–
